In patent US8309790B2, “Animal models for demyelination disorders” (University of Chicago, priority 2005, dated 2012):

Tested on: transgenic littermates overexpressing IFN-γ and/or SOCS1
Assay: IFN-γ-overexpressing mice crossed to PLP/SOCS1 mice, clinical and histological evaluation at postnatal day 21
Format: in vivo
Settings: for oligodendrocyte density: corpus callosum, postnatal day 21; for G ratio (axon diameter/fiber diameter ratio): hypomyelination defined as G ratio>0.8
From the text: The transgenic mice MBP/IFN-γ and GFAP/tTA×TRE/IFN-γ (lines 184/110 and 184/67) that overexpress IFN-γ in the CNS have been described elsewhere (Corbin et al., 1996; Gao et al., 2000; Lin et al., 2004, 2005). Briefly, MBP/IFN-γ mice are transgenic animals in which IFN-γ expression is driven by the myelin basic protein (MBP) transcriptional control region (Gao et al., 2000). GFAP/tTA×TRE/IFN-γ are double-transgenic mice obtained by mating single-transgenic GFAP/tTA to single-transgenic TRE/IFN-γ (lines 110 and 67) mice. The two TRE/IFN-γ mouse lines, line 110 and line 67, used in the experiments produce different amounts of IFN-γ when crossed to GFA/tTA mice (184/110 and 184/67) (Lin e al., 2004, 2005). GFAP/tTA×TRE/IFN-γ is a tetracycline-off-inducible system in which the glial fibrilary acidic protein (GFAP) transcriptional control region drives the expression of tTA, which in turn, binds to the TRE (tet responsive element) and initiates the expression of IFN-γ. Administration of doxycycline suppresses tTA DNA binding and IFN-γ expression, and doxycycline removal allows for temporally-controlled induction of IFN-γ expression (Gao et al., 1999).
IFN-γ-overexpressing mice were crossed to the PLP/SOCS1 mice in double-transgenic, (MBP/IFN-γ×PLP/SOCS1) and triple-transgenic (GFAP/tTA×TRE/IFN-γ×PLP/SOCS1) mating systems. MBP/IFN-γ×PLP/SOCS1 (172×PLP/SOCS1) mating was performed according to a standard mating protocol. The GFAP/tTA×TRE/IFN-γ×PLP/SOCS1 matings were performed in a 2-step mating process: GFAP/tTA mice were initially crossed to PLP/SOCS1 mice, and double-positive (184×PLP/SOCS1) offspring were then crossed to the TRE/IFN-γ lines 110 and 67, separately. This second mating step was performed according to the previously described “tet-off” protocol. Doxycycline 0.05 mg/ml (Sigma-Aldich) was added to the water of impregnated female mice until embryonic day 14, after which the animals were switched back to normal water, thereby allowing initiation of IFN-γ transcription, which peaks during the postnatal period (Lin et al., 2005).
The litters of the mating systems (F1 generation) were examined daily and sacrificed at postnatal day 21. Clinical evaluation included behavioral observation and challenged ladder walking to elicit tremor. Histological examination included quantitation of the number and density of oligodendrocytes and examination of the myelination patterns. Brain tissue was simultaneously obtained from each animal at the time of sacrifice to verify and measure the expression of IFN-γ and Flag-SOCS1 (see below). The clinical and histological findings were subsequently stratified according to genotype. All animal procedures were conducted in compliance with the National Institutes of Health Guide for Care and Use of Laboratory Animals and were approved by the Institutional Animal Care and Use Committee at The University of Chicago.
Oligodendrocyte cell density was assessed digitally using Axiovision software, at postnatal day 21, as previously described (Lin et al., 2005). The brains were sectioned sagittally through the corpus callosum dividing the brain in two symmetrical halves. Ten frozen sections from each half were prepared at 7 μm thickness, and numbered in the sequence of their preparation. The brains of three animals per study group were prepared in this fashion. Following the CC1 immunostaining the corresponding area of corpus callosum of each section was digitally selected and the corresponding total area obtained. CC1 cell counting was performed manually within the selected areas of each section, and the number of CC1 positive cells per square area (mm^2) calculated. The results were presented as mean±SD of CC1 (+) cells/mm^2 with n=3 animals per study group. […]

In the case of interferon-γ [IFN-γ], the Incidence of tremor (172 × PLP/SOCS1 mating system, ten mice per group) is reported as 0%, the oligodendrocytes lost (184/67 × PLP/SOCS1 system) is reported as “approximately 40%” and the “percentage of unmyelinated axons” value (184/67 × PLP/SOCS1 system) is reported as 57%±7. For the same substance, the oligodendrocyte density (184/67 × PLP/SOCS1 system) was 79±9 CC1 (+) cells/mm^2, the “G ratio (axon diameter/fiber diameter ratio)” value (184/67 × PLP/SOCS1 system) was 0.95±0.04 and the oligodendrocytes lost (184/110 × PLP/SOCS1 system) was “approximately 20%”. The “percentage of unmyelinated axons” value (184/110 × PLP/SOCS1 system) was 41%±6, the oligodendrocyte density (184/110 × PLP/SOCS1 system) was 115±8 CC1 (+) cells/mm^2 and the “G ratio (axon diameter/fiber diameter ratio)” value (184/110 × PLP/SOCS1 system) was 0.89±0.02.
